Values of other authors, collected in patent publication US20070218119A1, “STEROL ENRICHED MIXED LAMMELARITY AMPHOTERICIN INTERCALATING LIPOSOMES IN SALINE AND THE PROCESS FOR THEIR PREPARATION” (priority 2004, published 2007).

Settings: conventional Amphotericin B mixed with 0.9% Sodium Chloride (Martindale)

precipitation in 0.9% Sodium Chloride: precipitation of Amphotericin B
SMILES: C[C@@H]1[C@H](O)[C@@H](C)/C=C/C=C/C=C/C=C/C=C/C=C/C=C/[C@H](O[C@@H]2O[C@H](C)[C@@H](O)[C@H](N)[C@@H]2O)C[C@@H]2O[C@](O)(C[C@@H](O)C[C@@H](O)[C@H](O)CC[C@@H](O)C[C@@H](O)CC(=O)O[C@H]1C)C[C@H](O)[C@H]2C(=O)O [conventional Amphotericin B, Amphotericin B]
